Where “and” joins values, the source holds several entries; their conditions need not be identical. Identical values can stand only once.
Legend:
[1] = target: T1, MMP-3 (Homo sapiens, UniProt P08254); assay: MMP-3 inhibition (off-target); format: biochemical; details: read-out: MMP-3 % inhibition at 100 µM
T1 construct: purchased AnaSpec (Fremont, CA, USA)
Procedure: (§1) 3.1 In vitro inhibition assays
(§2) LasB was expressed and purified as described previously.[3] In vitro inhibition assays (LasB, MMPs, TACE). All in vitro inhibition assays were performed as described previously.[10] TACE inhibitor screening kits were purchased from Sigma-Aldrich (Saint Louis, MO). MMPs along with the SensoLyte 520 Generic MMP Activity Kit Fluorimetric were purchased from AnaSpec (Fremont, CA, USA). The assays were performed according to the guidelines of the respective manufacturer. Fluorescence signals were measured using a CLARIOstar plate reader (BMG Labtech, Ortenberg, Germany). […]
(§3) 3.8 Test against zinc metalloproteases MMP1–3 and TACE (ADAM17), and testing of
(§4) We selected a panel of human off -targets, including three human matrix metalloproteases (MMP-1, -2 and -3) and TACE (ADAM-17). These assays were performed as described previously.[3] The TACE inhibitor screening kit was purchased from Sigma -Aldrich (Saint Louis, MO). MMPs along with the SensoLyte 520 Generic MMP Activity Kit Fluorimetric were purchased from AnaSpec (Fremont, CA, USA). The assays were performed according to the guidelines of the respective manufacturer. Fluorescence signals were measured using a CLARIOstar plate reader (BMG Labtech, Ortenberg, Germany). […]
(§5) Table S6: Percent (%) inhibition of three MMPs (1 –3) and TACE (ADAM17) in presence of selected LasB inhibitors at 100 µM. Results are means and SD of at least two independent experiments. […]
(§6) Compound [% inhibition at [% inhibition at [% inhibition at [% inhibition at 100

[2] = tested on: HepG2 cells; assay: Cytotoxicity HepG2; format: cell-based; details: Homo sapiens, HepG2, read-out: HepG2 % inhibition at 100 µM (metabolic activity), 48 hours
Procedure: (§7) HepG2 (human hepatocellular carcinoma), HEK293 (human embryonal kidney) and A549
(§8) (human lung carcinoma) cells (2x10^5 cells per well) were seeded in 24-well in flat-bottomed
(§9) plates. Culturing of cells, incubations and OD measurements were performed as described
(§10) previously with small modifications.[14] Twenty-four hours after seeding the cells the incubation
(§11) was started by the addition of compounds in a final DMSO concentration of 1%. The living cell
(§12) mass was determined after 48 hours in a PHERAstar microplate reader (BMG labtech,
(§13) Ortenberg, Germany). Two independent measurements were performed for each compound.

[3] = target: T2, LasB (Pseudomonas aeruginosa, UniProt Q02RJ6); assay: In vitro LasB inhibition assay; format: biochemical; details: IC50 LasB inhibition
T2 construct: made in house
Procedure: as §1
LasB was expressed and purified as described previously.[3] In vitro inhibition assays (LasB,
MMPs, TACE). All in vitro inhibition assays were performed as described previously.[10] […]
Fluorescence signals were measured using a CLARIOstar plate reader (BMG
Labtech, Ortenberg, Germany). […]

[4] = tested on: A549 cells; assay: Cytotoxicity A549; format: cell-based; details: Homo sapiens, A549, read-out: A549 % inhibition at 100 µM (metabolic activity), 48 hours
Procedure: as §7, §8, §9, §10, §11, §12, §13

[5] = target: T2, LasB; assay: KC/LasB co-incubation study (ELISA); format: biochemical; details: 100 µM (R)-30, 100 nM LasB, 10 min
Procedure: Figure S15: MS-based quantification of (R)-30 levels in serum and eye homogenate. Concentrations were determined after single treatment ((R)-30 alone) or after combination with Meropenem.
To test whether KC might be a substrate for LasB, an ELISA was used to quantify KC levels after co-incubation with LasB. Briefly, 500 pg/ml of the recombinant murine KC standard (R&D part 840327) was incubated for 10 minutes in PBS supplemented with 1% BSA and 0.1% DMSO (vehicle control), LasB (100 nM), (R)-30 (100 µM), or a combination of both. Detection of KC and absorbance measurements were performed as described above (3.11).
(also on this page, place not known: Serum Eye homogenate 100 1000 concentrations Concentration [ng/mL] Meropenem + (R)-30 (R)-30 , 10 LasB (R)-30)
(1 picture or pasted object on this page, not shown here)

[6] = target: T3, TACE (ADAM17) (Homo sapiens, UniProt P78536); assay: TACE (ADAM17) inhibition (off-target); format: biochemical; details: read-out: TACE (ADAM17) % inhibition at 100 µM
T3 construct: purchased Sigma-Aldrich (Saint Louis, MO)
Procedure: as §1, §2, §3, §4, §5, §6

[7] = target: T4, hERG potassium channel (Homo sapiens, UniProt Q12809); assay: SafetyScreen44: hERG binding
T4 construct: Eurofins Cerep SA (CRO)
From the text: Moreover, we explored the safety profile of frontrunner (R)‐30 in more detail in order to detect additional crucial off‐target interactions. For this purpose, we employed the SafetyScreen44 in vitro panel comprising selected binding, inhibition and uptake assays.^[ [35] ^] The panel is a specialized pharmacological profiling tool that tests compounds against 44 key molecular targets, aiming to identify potential safety risks early in drug discovery. […]
The off-target Safety Screen44TM was performed by the CRO Eurofins Cerep SA (Celle-
L'Evescault, France) according to their protocols.[13] […]
MMP-1 MMP-2 MMP-3 TACE (ADAM17)
as §6

[8] = Lipophilicity determination (HPLC-based LogD7.4); format: physicochemical; details: C18 column; pH 7.4, HPLC-based
Procedure: 3.3 Lipophilicity determination
LogD7.4 was analyzed using an HPLC−based method. The UV retention time of reference compounds with known LogD7.4 was determined and plotted toward their LogD7.4. Linear regression was used to determine the LogD7.4 of unknown compounds. Analysis was performed using a Vanquish Flex HPLC system with variable wavelength detector (Thermo Fisher, Dreieich, Germany) with the following conditions: EC150/2 NUCLEODUR C18 Pyramid column, 5 μM (Macherey Nagel, Düren, Germany); eluent A: 50 mM NH4OAc pH 7.4, eluent B: acetonitrile, and flow: 0.6 mL/min.

T3 sequence (P78536 215-824): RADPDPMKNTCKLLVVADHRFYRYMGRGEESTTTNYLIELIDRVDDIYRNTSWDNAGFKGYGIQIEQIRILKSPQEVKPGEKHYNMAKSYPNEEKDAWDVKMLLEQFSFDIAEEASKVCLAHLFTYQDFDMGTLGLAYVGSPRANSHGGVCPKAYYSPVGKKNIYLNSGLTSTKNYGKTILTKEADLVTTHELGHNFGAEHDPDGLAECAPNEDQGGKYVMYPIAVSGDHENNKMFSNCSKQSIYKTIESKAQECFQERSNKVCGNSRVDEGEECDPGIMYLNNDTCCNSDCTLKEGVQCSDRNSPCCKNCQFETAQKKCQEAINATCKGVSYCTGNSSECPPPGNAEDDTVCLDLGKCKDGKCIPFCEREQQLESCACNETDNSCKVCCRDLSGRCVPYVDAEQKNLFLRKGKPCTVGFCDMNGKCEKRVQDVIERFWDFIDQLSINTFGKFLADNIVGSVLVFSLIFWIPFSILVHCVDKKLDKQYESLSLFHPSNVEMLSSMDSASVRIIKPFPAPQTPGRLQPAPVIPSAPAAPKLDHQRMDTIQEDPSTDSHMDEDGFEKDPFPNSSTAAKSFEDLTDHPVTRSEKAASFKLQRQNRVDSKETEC
T2 sequence (Q02RJ6 198-498): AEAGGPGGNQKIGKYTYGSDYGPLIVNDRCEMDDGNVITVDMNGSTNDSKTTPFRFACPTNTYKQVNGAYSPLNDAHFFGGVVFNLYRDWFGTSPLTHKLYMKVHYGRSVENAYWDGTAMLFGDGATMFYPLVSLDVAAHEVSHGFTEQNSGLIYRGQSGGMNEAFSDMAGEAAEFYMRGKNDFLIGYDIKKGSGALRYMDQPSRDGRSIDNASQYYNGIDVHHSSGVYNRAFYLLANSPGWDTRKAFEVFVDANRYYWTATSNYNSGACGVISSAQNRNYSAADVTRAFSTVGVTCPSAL
T1 sequence (P08254 100-477): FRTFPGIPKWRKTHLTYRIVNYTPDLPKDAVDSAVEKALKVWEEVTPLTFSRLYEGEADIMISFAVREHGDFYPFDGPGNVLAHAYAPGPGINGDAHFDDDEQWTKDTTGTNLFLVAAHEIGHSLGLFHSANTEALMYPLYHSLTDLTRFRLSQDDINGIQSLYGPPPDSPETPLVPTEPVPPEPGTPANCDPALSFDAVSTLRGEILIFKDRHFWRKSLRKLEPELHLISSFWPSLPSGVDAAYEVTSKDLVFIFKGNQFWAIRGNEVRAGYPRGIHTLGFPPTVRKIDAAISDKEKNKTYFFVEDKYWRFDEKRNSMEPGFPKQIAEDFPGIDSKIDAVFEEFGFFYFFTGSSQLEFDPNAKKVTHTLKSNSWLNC
T4 sequence (Q12809 whole entry): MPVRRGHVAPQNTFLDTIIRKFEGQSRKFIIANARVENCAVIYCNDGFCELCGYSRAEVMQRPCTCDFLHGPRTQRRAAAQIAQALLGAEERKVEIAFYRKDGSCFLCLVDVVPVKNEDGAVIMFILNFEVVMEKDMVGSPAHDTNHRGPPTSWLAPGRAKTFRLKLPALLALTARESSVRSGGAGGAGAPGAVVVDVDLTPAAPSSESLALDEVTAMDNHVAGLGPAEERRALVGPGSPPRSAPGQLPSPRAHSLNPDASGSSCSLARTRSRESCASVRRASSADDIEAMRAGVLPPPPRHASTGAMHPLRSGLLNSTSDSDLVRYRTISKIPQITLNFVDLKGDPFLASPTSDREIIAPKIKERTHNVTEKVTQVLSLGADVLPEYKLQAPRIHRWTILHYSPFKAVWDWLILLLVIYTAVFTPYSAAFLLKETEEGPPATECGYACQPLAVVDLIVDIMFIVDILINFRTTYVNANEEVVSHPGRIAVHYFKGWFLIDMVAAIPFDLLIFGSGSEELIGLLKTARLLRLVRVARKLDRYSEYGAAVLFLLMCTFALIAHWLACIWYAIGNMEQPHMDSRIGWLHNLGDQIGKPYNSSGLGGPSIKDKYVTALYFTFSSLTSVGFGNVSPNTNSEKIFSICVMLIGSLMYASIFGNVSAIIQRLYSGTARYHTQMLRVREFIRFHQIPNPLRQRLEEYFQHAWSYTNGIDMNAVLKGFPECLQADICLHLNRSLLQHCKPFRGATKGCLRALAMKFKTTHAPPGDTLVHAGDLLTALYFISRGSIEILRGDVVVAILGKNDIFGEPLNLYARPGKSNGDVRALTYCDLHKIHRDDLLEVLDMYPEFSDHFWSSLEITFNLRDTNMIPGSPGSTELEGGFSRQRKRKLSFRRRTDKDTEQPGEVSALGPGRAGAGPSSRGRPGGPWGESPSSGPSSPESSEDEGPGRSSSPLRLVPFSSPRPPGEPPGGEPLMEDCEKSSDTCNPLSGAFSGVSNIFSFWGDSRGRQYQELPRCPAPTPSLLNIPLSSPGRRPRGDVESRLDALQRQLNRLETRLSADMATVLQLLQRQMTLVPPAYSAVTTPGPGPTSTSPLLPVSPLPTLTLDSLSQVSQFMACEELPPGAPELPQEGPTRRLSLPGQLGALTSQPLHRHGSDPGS

| SMILES | inhibition at 100 µM [1] | inhibition at 100 µM [2] | IC50 [3] | inhibition at 100 µM [4] | proteolytic activity of LasB on KC [5] | inhibition at 100 µM [6] | inhibition at 100 µM [7] | chromatographic logD [8] |
| --- | --- | --- | --- | --- | --- | --- | --- | --- |
| CC(=O)c1ccc(NC(=O)[C@@H](NC(=O)[C@@H](CC(C)C)P(=O)(O)O)C(C)C)cc1 [(R)‐30] | < 10% | < 10% | 4 nM and 3.7 nM | < 10% | effectively blocked | 13 ± 2% | 79.4% |  |
| CC(C)C[C@H](C(=O)N[C@H](C(=O)Nc1ccc(-n2ccnc2)cc1)C(C)C)P(=O)(O)O [(R)‐36] | < 10% | < 10% | 10.9 ± 0.3 nM | < 10% |  | < 10% |  | -0.67 |
| CC(=O)c1ccc(NC(=O)[C@@H](NC(=O)C(CC(C)C)P(=O)(O)O)C(C)C)cc1 (stereo partly shown) [compound 30] | < 10% | < 10% | 5 ± 0.2 nM | < 10% |  | 13 ± 4% |  |  |
| CC(C)CC(C(=O)N[C@H](C(=O)Nc1ccc(Cl)c(Cl)c1)C1CCCCC1)P(=O)(O)O (stereo partly shown) [compound 14] | < 10% | 13% | 12.4 ± 0.3 nM | < 10% |  | < 10% |  | 1.14 |
| CC(C)CC(C(=O)N[C@H](C(=O)Nc1ccc(Cl)c(Cl)c1)C(C)C)P(=O)(O)O (stereo partly shown) [compound 9] | < 10% | < 10% |  | < 10% |  | < 10% |  |  |
| CC(C)CC(C(=O)N[C@H](C(=O)Nc1ccc(Cl)c(Cl)c1)C1CCC1)P(=O)(O)O (stereo partly shown) [compound 13] | < 10% | < 10% | 11.9 ± 0.3 nM | < 10% |  | < 10% |  | -0.58 |

From article PMC11984924, “Dipeptidic Phosphonates: Potent Inhibitors of Pseudomonas aeruginosa Elastase B Showing Efficacy in a Murine Keratitis Model” (Advanced Science, 2025)
